Results as given in PMC9221442, “Design, Synthesis and Characterization of [G10a]-Temporin SHa Dendrimers as Dual Inhibitors of Cancer and Pathogenic Microbes” (Biomolecules, 2022).
In brackets after ≈: the same amount, converted by molar mass. Entries after “also recorded” stand apart in the source; their conditions may differ. Read-outs that look alike come from different tables or passages of the source. Where a SMILES comes first, the peptide text is derived from it.

Legend:
human cancer cells = assay type: cell-based; conditions: 48 h
Description: (§1) The antiproliferative effect of the peptides was determined by using human cells, as previously described. Human cancer cells used in this experiment were ovarian cancer cells A2780 (obtained from ECACC), breast cancer cells MCF-7 (obtained from ATCC), liver cancer cells HepG2 (obtained from ATCC), lung cancer cells A549 (obtained from ATCC), pancreatic cancer cells MiaPaCa (obtained from ATCC), prostate cancer cells PC-3 (obtained from ATCC), and skin cancer cells MNT-1 (generous gift from the National Institute of Health (NIH). Normal human cells used were human lung fibroblasts IMR-90 (obtained from ATCC). All cells were cultured in DMEM which was supplemented with 10% fetal bovine serum (FBS), 1% L-glutamine, and 1% antibiotics (all from Invitrogen) at 37 °C in 5% CO2 incubator. For cytotoxicity assay, cells were maintained in 25 cm^2 flasks. Cells were separated from flasks using trypsin-EDTA solution (from Thermofisher) and counted using Malassez chamber and diluted in culture medium before seeding into 96-well cell-culture plates (Greiner bio-one, Paris, France) at approximately 3000 cells/well. Cells were then treated with increasing concentration of peptides diluted in culture medium (1:2 serial dilution, from 100 µM to 0 µM). After 48 h, medium was aspirated and number of viable cells was colorimetrically determined using resazurin-based assay following manufacturer’s instructions. The fluorescence intensity was measured using microplate reader (Biotek, Santa Clara, CA, USA, Synergy Mx) with an excitation wavelength of 530 nm and an emission wavelength of 590 nm. The fluorescence values were normalized by the controls (untreated cells) and expressed as percent of proliferation. The IC50 values of peptides (i.e., the concentrations causing 50% inhibition of cell proliferation) were determined using GraphPad® Prism 7 software.

[1] = system: human lung fibroblasts IMR-90; assay type: cell-based; conditions: 48 h
Description: as §1

[2] = Dynamic light scattering (zetasizer); assay type: physicochemical
Description: The dendrimeric solutions of peptides were transferred into transparent cuvette with care to remove bubble formation. The sample was then transferred to the cell holder and study was performed at 90° scattering angle at room temperature. The standard viscosity and refractive index were kept constant and kept at 1.0, 1.33 and 80.4 mPa, respectively.

[3] = Stability study at different temperatures (absorbance spectrum); conditions: room temperature, 35 °C, 40 °C, 50 °C and 60 °C
Description: The stability of dendrimers at different pH values and temperatures was also determined. For this, a 510 model digital pH meter (Oakton Eutech) with working electrode of glass material and a Ag/AgCl as reference electrode was used for the pH record. Dilute solutions of HCl and NaOH were added to adjust the pH of the solution from 2 to 12. Similarly, stability of monomer [G10a]-SHa and its three dendrimers was checked by heating the peptide dendrimers on different temperature ranges, i.e., room temperature, 35 °C, 40 °C, 50 °C and 60 °C.

[4] = Stability study at different pH; conditions: pH 2 to pH 14
Description: The stability of dendrimers at different pH values and temperatures was also determined. For this, a 510 model digital pH meter (Oakton Eutech) with working electrode of glass material and a Ag/AgCl as reference electrode was used for the pH record. […] Similarly, stability of monomer [G10a]-SHa and its three dendrimers was checked by heating the peptide dendrimers on different temperature ranges, i.e., room temperature, 35 °C, 40 °C, 50 °C and 60 °C.

human red blood cells = experiment: Hemolysis assay; assay type: cell-based
Description: (§2) The ability of dendrimers and peptides to cause hemolysis was evaluated using human whole red blood cells. Briefly, fresh human erythrocytes (obtained from Divbio Science Europe, NL) were washed 3 times by centrifugation at 800× g for 5 min with sterile phosphate buffer saline (PBS, pH 7.4). The washed erythrocytes were resuspended in complete culture media (DMEM supplemented with 10% FBS) to a final concentration of 8%. Human erythrocytes were then added into sterile 96-well microplates (150 µL per well) and were exposed to increasing concentrations of peptides or dendrimers. After 1 h incubation at 37 °C, plates were centrifuged at 800× g for 5 min. Then, 100 µL of supernatant were carefully transferred to a new 96-well microplate and absorbance was measured at 450 nm using microplate reader. Triton-X100 at 0.1% (v/v) was used as positive control giving 100% hemolysis. The HC50 values of peptides and dendrimers (i.e., the concentration of compound causing 50% of hemolysis) were calculated using GraphPad® Prism 7 software.

Hemolysis assay = assay type: cell-based, human; conditions: human
Description: as §2

[5] = system: prostate cancer cells PC-3; assay type: cell-based, human; conditions: 48 h
Description: as §1

lung cancer cells A549 = assay type: cell-based, human; conditions: 48 h
Description: as §1

skin cancer cells MNT-1 = assay type: cell-based, human; conditions: 48 h
Description: as §1

liver cancer cells HepG2 = assay type: cell-based, human; conditions: 48 h
Description: as §1

[6] = system: pancreatic cancer cells MiaPaCa; assay type: cell-based, human; conditions: 48 h
Description: as §1

[7] = system: breast cancer cells MCF-7; assay type: cell-based, human; conditions: 48 h
Description: as §1

[8] = system: ovarian cancer cells A2780; assay type: cell-based, human; conditions: 48 h
Description: as §1

[9] = system: Pseudomonas aeruginosa (ATCC 9027); assay type: cell-based
Description: (§3) Experiments were performed in triplicate (n = 3).

[10] = system: Staphylococcus aureus (ATCC 6538); assay type: cell-based
Description: as §3

[11] = system: Escherichia coli (ATCC 8739); assay type: cell-based
Description: as §3

[12] = system: Acinetobacter baumannii (DSM 30007); assay type: cell-based
Description: as §3

[13] = system: Enterobacter cloacae (DSM 30054); assay type: cell-based
Description: as §3

[14] = system: Bacillus subtilis (ATCC 6633); assay type: cell-based
Description: as §3

[15] = system: Klebsiella pneumoniae (DSM 26371); assay type: cell-based
Description: as §3

[16] = system: Enterococcus faecalis (DSM 2570); assay type: cell-based
Description: as §3

[17] = system: Enterococcus faecium (DSM 20477); assay type: cell-based; conditions: DSM 20477
Description: as §3

[18] = system: Helicobacter pylori (ATCC 43504); assay type: cell-based
Description: as §3

H. pylori = system: H. pylori; parameters: method as in PMID 31614561; conditions: cited from earlier work
[19] = system: methicillin-resistant Staphylococcus aureus (MRSA); parameters: method as in PMID 35092568; conditions: cited from earlier work
[20] = cited from earlier work

CC[C@H](C)[C@H](NC(=O)CNC(=O)[C@H](CO)NC(=O)[C@H](CC(C)C)NC(=O)[C@@H](N)Cc1ccccc1)C(=O)N[C@H](C(=O)NCC(=O)N[C@@H](CCSC)C(=O)N[C@@H](CC(C)C)C(=O)N[C@H](C)C(=O)N[C@@H](CCCCN)C(=O)N[C@@H](CC(C)C)C(=O)N[C@@H](Cc1ccccc1)C(N)=O)C(C)C [[G10a]-SHa, H-Phe^1-Leu^2-Ser^3-Gly^4-Ile^5-Val^6-Gly^7-Met^8-Leu^9-D-Ala^10-Lys^11-Leu^12-Phe^13-NH2] (HELM PEPTIDE1{F.L.S.G.I.V.G.M.L.[dA].K.L.F.[am]}$$$$V2.0)
IC50 (human cancer cells): 18.1 ± 6.68 µM | IC50 [1]: 37.2 ± 2.88 µM | Pdi Values (polydispersity index) ([2]; DLS): 0.628 | Z-Average ([2]; DLS, room temperature): 63.25 nm·days | Zeta Potential ([2]; zetasizer): −34.1 mV | stability at different temperatures [3]: considerable stability up to 60 °C; also recorded: higher stability up to 60 °C | stability at different pH [4]: significantly stable at pH values up to 10 and unstable at high pH values of 12 and 14 | hemolytic activity (in words) (human red blood cells): high hemolytic activity | estimated HC50 (concentration causing 50% of hemolysis) (human red blood cells; red cells of human, 1 h): 43.66 ± 1.01 µM | hemolysis at 100 µM (Hemolysis assay): 102 ± 6.18% | IC50 [5]: 13 ± 1.99 µM | IC50 (lung cancer cells A549): 14.5 ± 1.44 µM | IC50 (skin cancer cells MNT-1): 15.2 ± 0.8 µM | IC50 (liver cancer cells HepG2): 31.6 ± 1.56 µM | IC50 [6]: 22.4 ± 6.07 µM | IC50 [7]: 15.1 ± 8.51 µM | IC50 [8]: 14.8 ± 7.35 µM | minimal inhibitory concentration (MIC) ([9]; ATCC 9027): >100 µM | minimal inhibitory concentration (MIC) ([9]; P. aeruginosa (ATCC 9027), 18–24 h, aerobic): > 100 µM | minimal inhibitory concentration (MIC) ([10]; ATCC 6538): 3.12 µM (≈ 4.35 µg/mL) | minimal inhibitory concentration (MIC) ([10]; S. aureus (ATCC 6538), 18–24 h, aerobic): 3.12 µM (≈ 4.35 µg/mL) | minimal inhibitory concentration (MIC) ([11]; ATCC 8739): 100 µM (≈ 139 µg/mL) | minimal inhibitory concentration (MIC) ([11]; E. coli (ATCC 8739), 18–24 h, aerobic): 100 µM (≈ 139 µg/mL) | minimal inhibitory concentration (MIC) ([12]; A. baumannii (DSM 30007), 18–24 h, aerobic): 12.5 µM (≈ 17.4 µg/mL) | minimal inhibitory concentration (MIC) ([12]; DSM 30007): 12.5 µM (≈ 17.4 µg/mL) | minimal inhibitory concentration (MIC) ([13]; DSM 30054): >100 µM | minimal inhibitory concentration (MIC) ([13]; E. cloacae (DSM 30054), 18–24 h, aerobic): > 100 µM | minimal inhibitory concentration (MIC) ([14]; ATCC 6633): 3.12 µM (≈ 4.35 µg/mL) | minimal inhibitory concentration (MIC) ([14]; B. subtilis (ATCC 6633), 18–24 h, aerobic): 3.12 µM (≈ 4.35 µg/mL) | minimal inhibitory concentration (MIC) ([15]; DSM 26371): 100 µM (≈ 139 µg/mL) | minimal inhibitory concentration (MIC) ([15]; K. pneumoniae (DSM 26371), 18–24 h): 100 µM (≈ 139 µg/mL) | minimal inhibitory concentration (MIC) ([16]; DSM 2570): 25 µM (≈ 34.9 µg/mL) | minimal inhibitory concentration (MIC) ([16]; E. faecalis (DSM 2570), 18–24 h, micro-aerobic): 25 µM (≈ 34.9 µg/mL) | minimal inhibitory concentration (MIC) [17]: >100 µM | minimal inhibitory concentration (MIC) ([18]; ATCC 43504): 3.12 µM (≈ 4.35 µg/mL) | minimal inhibitory concentration (MIC) ([18]; H. pylori (ATCC 43504), 18–24 h, micro-aerobic): 3.12 µM (≈ 4.35 µg/mL) | antibacterial activity (in words) (H. pylori): active | antibacterial activity (in words) [19]: active | serum stability (in words) [20]: good serum stability
